Molecules are shown by their SMILES.

From US20050064521A1, “In vitro assay for evaluation of angiogenic effects” (TUNGHAI UNIVERSITY, priority 2003, published 2005) come the findings set out here.

Experiment [1] deals with endothelial cells. The experiment is described as follows: Collapse of the three-dimensional collagen fiber gel, trypan blue absorbance measurement. Format: cell-based, Sprague-Dawley (SD) rats. As for the experimental part:
(§1) Three-dimensional collagen fiber gel: The dry collagen fiber was extract from tails of Sprague-Dawley (SD) rats. The fiber was dissolved in 1 N acetic acid solution in the concentration of 1 g fiber/100 mL acetic acid. The dissolving was performed at 4° C. for 48 hours and followed by dialysis three times with 0.25 N acetic acid solution for 24 hours.
Endothelial cells: SD rats weighting 100 to 200 g were anaesthetized with 0.1 mL/100 g body weight of barbiturate (Nembutal™, Abbott® Laboratories, USA) intraperitoneally. The thoracic aortas were cut and the connective tissues were removed. The vessels were further split into vessel rings thickening about 2 mm, and then cultured the rings in fresh Dulbecco's modified Eagle medium (DMEM) with 10% fetal bovine serum. The culture was maintained at 37° C. with 5% CO2 with changing the medium every two days. After cultured for 5 to 6 days, the cells were harvested. The endothelial cells suitable for the method according to the invention were the second to tenth passage cells. […]
After culturing for 48 hours, the medium was removed and 0.075% trypan blue was added for staining the gels for 30 minutes. The upper solution was then removed and the absorbance of the solution was determined with a spectroscope. […]
It was evidenced that the degree of collapse of the three-dimensional collagen fiber gel is decreased with the addition of EGCg. That results support that the effect of a compound on angiogenesis can be determined by comparing the degrees of collapse of the collagen fiber gels of the models. For instance, the compound is determined to have a stimulatory effect on angiogenesis in case the collapse of the collagen fiber gel of the model added with the compound is increased in comparison with that added without the compound; in contrast, the compound is determined to have an inhibitory effect on angiogenesis in case the collapse of the collagen fiber gel of the model added with the compound is decreased in comparison with that added without the compound.

Experiment [2] relates to endothelial cells. Description: Tube formation of endothelial cells in three-dimensional collagen fiber gel model, inverted microscopy. Format: cell-based, Sprague-Dawley (SD) rats. As to conditions: cultured for 48 hours. Here is the method:
as §1
Endothelial cells: SD rats weighting 100 to 200 g were anaesthetized with 0.1 mL/100 g body weight of barbiturate (Nembutal™, Abbott® Laboratories, USA) intraperitoneally. The thoracic aortas were cut and the connective tissues were removed. The vessels were further split into vessel rings thickening about 2 mm, and then cultured the rings in fresh Dulbecco's modified Eagle medium (DMEM) with 10% fetal bovine serum. The culture was maintained at 37° C. with 5% CO2 with changing the medium every two days. After cultured for 5 to 6 days, the cells were harvested. The endothelial cells suitable for the method according to the invention were the second to tenth passage cells.
Model: The endothelial cells (3×10^6) were mixed in the three-dimensional collagen fiber gel and cultured in DMEM containing 5% fetal bovine serum and 10 ng/mL VEGF and 3.08 ng/mL TPA at 37° C. After culturing the endothelial cells for 0, 6, 12, 24, 48, and 72 hours, the morphologies of the cell and gel were both observed with an inverted microscope. […]

On to `O=C(O[C@@H]1Cc2c(O)cc(O)cc2O[C@@H]1c1cc(O)c(O)c(O)c1)c1cc(O)c(O)c(O)c1` [EGCg, epigallocatechin gallate], for which, in experiment [1] (25 μM EGCg), the “inhibitory effect on angiogenesis (absorbance measurement)” value is reported as “a little inhibitory effect on angiogenesis”. Moreover, the “collapse of the gel (absorbance measurement)” value in experiment [1] (50 μM EGCg) was “nearly totally inhibited”; in experiment [1] (100 μM EGCg), “nearly no collapse was observed”. Also, in experiment [2] (25 μM EGCg), the “tubes and cell count versus control without EGCg” value is “less tubes and lower cell count”. Moreover, the tubes entry in experiment [2] (100 μM EGCg) is “almost no tubes”.
